Where only a bound is given, the exact number is not on record here.

For one assay, the target named is T1, GST-JAK2(808-1132) (Homo sapiens, UniProt O60674).
T1 construct: GST-JAK2(808-1132); purchased Invitrogen (Carlsbad, USA) #4288
As to the kind of experiment: JAK2 kinase assay (Caliper mobility shift, LabChip 3000). The assay is classed as biochemical. A digest of the protocol:
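Recombinant GST-JAK2(808-1132) kinase domain with FITC-labelled JAK3tide peptide substrate and ATP; 60 min at 30 °C, EDTA stop. Substrate/product ratio read by microfluidic mobility shift; compounds at 8 final concentrations, 10 to 0.003 μM.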

The test system of assay [1] is JAK1/JAK2-dependent nuclear translocation of STAT1-GFP in HT1080 fibrosarcoma cells. Briefly: STAT1 nuclear translocation assay (Cellomics), IFN-γ stimulated HT1080 STAT1-GFP cells. In kind it is cell-based. A digest of the protocol: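 HT1080 cells stably expressing STAT1-GFP, pre-treated 30 min with compound (10 μM–0.003 μM, 0.1% DMSO), then stimulated 2 h with 100 ng/ml IFN-γ, fixed and Hoechst-stained. Nuclear-cytoplasmic GFP differential imaged over ≥1000 cells/well, normalised to unstimulated and DMSO-stimulated wells for IC50.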

[2] abbreviates: Homo sapiens, HT-1080, STAT1 translocation pathway.

T1 sequence (O60674 808-1132): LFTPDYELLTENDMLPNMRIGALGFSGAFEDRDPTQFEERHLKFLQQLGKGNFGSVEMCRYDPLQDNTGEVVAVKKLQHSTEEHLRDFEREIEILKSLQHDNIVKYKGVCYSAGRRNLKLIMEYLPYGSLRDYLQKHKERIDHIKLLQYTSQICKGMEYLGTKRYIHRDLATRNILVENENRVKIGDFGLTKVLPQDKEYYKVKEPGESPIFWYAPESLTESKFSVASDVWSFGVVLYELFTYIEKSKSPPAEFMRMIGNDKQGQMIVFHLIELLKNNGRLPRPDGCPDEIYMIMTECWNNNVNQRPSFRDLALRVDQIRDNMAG

As to `Cc1ccc(Nc2ncc3ccn(-c4ccc(C(=O)NCCN5CCN(C)CC5)c(F)c4)c3n2)cc1C` [Example 298, 4-[2-(3,4-Dimethyl-phenylamino)-pyrrolo[2,3-d]pyrimidin-7-yl]-2-fluoro-N-[2-(4-methyl-piperazin-1-yl)-ethyl]-benzamide], the results for the IC50 (on GST-JAK2(808-1132); in assay [1] (setting [2])) were 23 nM and 2210 nM, respectively.
On the same counts, the results for `CS(=O)(=O)c1ccc(-n2ccc3cnc(Nc4ccc(C(=O)N5CCNCC5)cc4)nc32)cc1` [Example 87, {4-[7-(4-Methanesulfonyl-phenyl)-7H-pyrrolo[2,3-d]pyrimidin-2-ylamino]-phenyl}-piperazin-1-yl-methanone] are 3.8 nM and 18300 nM.
In the case of `CN1CCN(Cc2cccc(Nc3ncc4ccn(-c5cc(F)c(CN6CCOCC6)c(F)c5)c4n3)c2)CC1` [Example 199, [7-(3,5-Difluoro-4-morpholin-4-ylmethyl-phenyl)-7H-pyrrolo[2,3-d]pyrimidin-2-yl]-[3-(4-methyl-piperazin-1-ylmethyl)-phenyl]-amine], the IC50 – broadly, the concentration at which inhibition is half-maximal – was less than 3 nM at GST-JAK2(808-1132) and 222 nM in assay [1] (setting [2]).
On to `CN1CCN(Cc2ccc(Nc3ncc4ccn(-c5ccc(S(C)(=O)=O)cc5)c4n3)cc2)CC1=O` [Example 335, 4-{4-[7-(4-Methanesulfonyl-phenyl)-7H-pyrrolo[2,3-d]pyrimidin-2-ylamino]-benzyl}-1-methyl-piperazin-2-one], for which the figures for the IC50 (on GST-JAK2(808-1132); in assay [1] (setting [2])) were 9.3 nM and 360 nM, respectively.
As to `CN1CCN(C(=O)c2ccc(-n3ccc4cnc(Nc5ccc(F)cc5)nc43)cc2F)CC1` [Example 58, {2-Fluoro-4-[2-(4-fluoro-phenylamino)-pyrrolo[2,3-d]pyrimidin-7-yl]-phenyl}-(4-methyl-piperazin-1-yl)-methanone], the IC50 on GST-JAK2(808-1132) worked out at 12 nM; in assay [1] (setting [2]), 5300 nM.
Take `O=C(c1ccc(-n2ccc3cnc(Nc4ccc(F)cc4)nc32)cc1F)N1CCOCC1` [Example 59, {2-Fluoro-4-[2-(4-fluoro-phenylamino)-pyrrolo[2,3-d]pyrimidin-7-yl]-phenyl}-morpholin-4-yl-methanone]: the IC50 worked out at 6.5 nM at GST-JAK2(808-1132) and 920 nM in assay [1] (setting [2]).
On the same counts, the results for `O=C(c1c(F)cc(-n2ccc3cnc(Nc4cccnc4)nc32)cc1F)N1CCOCC1` [Example 216, {2,6-Difluoro-4-[2-(pyridin-3-ylamino)-pyrrolo[2,3-d]pyrimidin-7-yl]-phenyl}-morpholin-4-yl-methanone] are 3.3 nM and 579 nM.
For the compound `CS(=O)(=O)c1ccc(-n2ccc3cnc(Nc4ccc(C(=O)NCCN5CCOCC5)cc4)nc32)cc1` [Example 67, 4-[7-(4-Methanesulfonyl-phenyl)-7H-pyrrolo[2,3-d]pyrimidin-2-ylamino]-N-(2-morpholin-4-yl-ethyl)-benzamide], the IC50 at GST-JAK2(808-1132) is less than 3 nM; in assay [1] (setting [2]), 39 nM.
Consider `COc1cc(Nc2ncc3ccn(-c4ccc(CC(=O)N5CCOCC5)cc4)c3n2)ccc1F` [Example 142, 2-{4-[2-(4-Fluoro-3-methoxy-phenylamino)-pyrrolo[2,3-d]pyrimidin-7-yl]-phenyl}-1-morpholin-4-yl-ethanone], for which the IC50 at GST-JAK2(808-1132) was less than 3 nM; in assay [1] (setting [2]), 101 nM.
On the same counts, the results for `C[C@@H]1CN(Cc2ccc(Nc3ncc4ccn(-c5cc(F)c(CN6CCOCC6)c(F)c5)c4n3)cc2)[C@@H](C)CN1` (racemic) [Example 260, [7-(3,5-Difluoro-4-morpholin-4-ylmethyl-phenyl)-7H-pyrrolo[2,3-d]pyrimidin-2-yl]-[4-((2S,5R)-2,5-dimethyl-piperazin-1-ylmethyl)-phenyl]-amine] are 5 nM and 280 nM.
Taken in the same sequence, the figures for `CC(C)Oc1ccc(Nc2ncc3ccn(-c4ccc(C(=O)N5CCOCC5)cc4)c3n2)cc1` [Example 231, {4-[2-(4-Isopropoxy-phenylamino)-pyrrolo[2,3-d]pyrimidin-7-yl]-phenyl}-morpholin-4-yl-methanone] were 3.2 nM and 258 nM.
On the same counts, the results for `CCN(CC)CCOc1cccc(Nc2ncc3ccn(-c4ccc(S(C)(=O)=O)cc4)c3n2)c1` [Example 36, [3-(2-Diethylamino-ethoxy)-phenyl]-[7-(4-methanesulfonyl-phenyl)-7H-pyrrolo[2,3-d]pyrimidin-2-yl]-amine] are less than 3 nM and 10.9 nM.
As to `C[C@@H]1CN[C@@H](C)CN1c1ccc(Nc2ncc3ccn(-c4cc(F)c(C(=O)N5CCOCC5)c(F)c4)c3n2)cn1` (racemic) [Example 269, (4-{2-[6-((2R,5S)-2,5-Dimethyl-piperazin-1-yl)-pyridin-3-ylamino]-pyrrolo[2,3-d]pyrimidin-7-yl}-2,6-difluoro-phenyl)-morpholin-4-yl-methanone], the IC50 on GST-JAK2(808-1132) was found to be 10 nM; in assay [1] (setting [2]) it was 465 nM.
Take `Cc1ccc(Nc2ncc3ccn(-c4cc(F)c(CN5CCOCC5)c(F)c4)c3n2)cc1Cl` [Example 128, (3-Chloro-4-methyl-phenyl)-[7-(3,5-difluoro-4-morpholin-4-ylmethyl-phenyl)-7H-pyrrolo[2,3-d]pyrimidin-2-yl]-amine]: the results for the half-inhibitory concentration (IC50) (at GST-JAK2(808-1132); in assay [1] (setting [2])) were 120 nM and 3680 nM, respectively.
Taken in the same sequence, the figures for `CS(=O)(=O)c1ccc(-n2ccc3cnc(Nc4cccc(CN5CCCCC5)c4)nc32)cc1` [Example 41, [7-(4-Methanesulfonyl-phenyl)-7H-pyrrolo[2,3-d]pyrimidin-2-yl]-(3-piperidin-1-ylmethyl-phenyl)-amine] were less than 3 nM and 75 nM.
As for `CC(C)Oc1ccc(Nc2ncc3ccn(-c4ccc(S(C)(=O)=O)cc4)c3n2)cc1` [Example 3, (4-Isopropoxy-phenyl)-[7-(4-methanesulfonyl-phenyl)-7H-pyrrolo[2.3-d]pyrimidin-2-yl]-amine], the figures for the IC50 (at GST-JAK2(808-1132); in assay [1] (STAT1 translocation pathway)) were 9.4 nM and 98.5 nM, respectively.
Consider `CN1CCN(c2ccc(Nc3ncc4ccn(-c5cc(F)c(CN6CCS(=O)(=O)CC6)c(F)c5)c4n3)cn2)CC1` [Example 443, {7-[4-(1,1-Dioxido-thiomorpholin-4-ylmethyl)-3,5-difluoro-phenyl]-7H-pyrrolo[2,3-d]pyrimidin-2-yl}-[6-(4-methyl-piperazin-1-yl)-pyridin-3-yl]-amine], for which the figures for the IC50 (on GST-JAK2(808-1132); in assay [1] (setting [2])) were not above 3 nM and 9.5 nM, respectively.
Taken in the same sequence, the figures for `CN1CCN(C(=O)Cc2ccc(-n3ccc4cnc(Nc5ccc(C(F)(F)F)cc5)nc43)cc2)CC1` [Example 145, 1-(4-Methyl-piperazin-1-yl)-2-{4-[2-(4-trifluoromethyl-phenylamino)-pyrrolo[2,3-d]pyrimidin-7-yl]-phenyl}-ethanone] were 7 nM and 365 nM.
On the same counts, the results for `C[C@@H]1CN(c2ccc(Nc3ncc4ccn(-c5cc(F)c(CN6CCS(=O)(=O)CC6)c(F)c5)c4n3)cn2)C[C@H](C)N1` [Example 441, [6-(cis-3,5-Dimethyl-piperazin-1-yl)-pyridin-3-yl]-{7-[4-(1,1-dioxido-thiomorpholin-4-ylmethyl)-3,5-difluoro-phenyl]-7H-pyrrolo[2,3-d]pyrimidin-2-yl}-amine] are not above 3 nM and 45 nM.
On the same counts, the results for `CC(C)Oc1ccc(Nc2ncc3ccn(-c4ccc(C(C)N5CCOCC5)cc4)c3n2)cc1` (racemic) [Example 193, (4-Isopropoxy-phenyl)-{7-[4-(1-morpholin-4-yl-ethyl)-phenyl]-7H-pyrrolo[2,3-d]pyrimidin-2-yl}-amine] are 8.4 nM and 351 nM.
`Cc1cc(Nc2ncc3ccn(-c4ccc(C5(C(=O)N6CCN(C)CC6)CC5)cc4)c3n2)ccc1F` [Example 122, (1-{4-[2-(4-Fluoro-3-methyl-phenylamino)-pyrrolo[2,3-d]pyrimidin-7-yl]-phenyl}-cyclopropyl)-(4-methyl-piperazin-1-yl)-methanone]: the IC50 at GST-JAK2(808-1132) was determined as 3.3 nM; in assay [1] (setting [2]) it was 164 nM.
Take `Cc1cc(Nc2ncc3ccn(-c4ccc(C(=O)N5CCN(C)CC5)c(F)c4)c3n2)ccc1F` [Example 88, {2-Fluoro-4-[2-(4-fluoro-3-methyl-phenylamino)-pyrrolo[2,3-d]pyrimidin-7-yl]-phenyl}-(4-methyl-piperazin-1-yl)-methanone]: the IC50 amounted to 8.9 nM on GST-JAK2(808-1132) and 3270 nM in assay [1] (setting [2]).
Turning to `CS(=O)(=O)c1ccc(-n2ccc3cnc(Nc4cccc(Cn5ccnc5)c4)nc32)cc1` [Example 47, (3-Imidazol-1-ylmethyl-phenyl)-[7-(4-methanesulfonyl-phenyl)-7H-pyrrolo[2,3-d]pyrimidin-2-yl]-amine], the IC50 on GST-JAK2(808-1132) is less than 3 nM; in assay [1] (setting [2]), 73 nM.
Consider `O=C(c1c(F)cc(-n2ccc3cnc(Nc4ccc(N5CCN(CCO)CC5)nc4)nc32)cc1F)N1CCOCC1` [Example 264, [2,6-Difluoro-4-(2-{6-[4-(2-hydroxy-ethyl)-piperazin-1-yl]-pyridin-3-ylamino}-pyrrolo[2,3-d]pyrimidin-7-yl)-phenyl]-morpholin-4-yl-methanone], for which the IC50 was less than 3 nM at GST-JAK2(808-1132) and 165 nM in assay [1] (setting [2]).
Taken in the same sequence, the figures for `Cc1ccc(Nc2ncc3ccn(-c4ccc(CC(=O)N5CCN(C)CC5)cc4)c3n2)cc1C` [Example 148, 2-{4-[2-(3,4-Dimethyl-phenylamino)-pyrrolo[2,3-d]pyrimidin-7-yl]-phenyl}-1-(4-methyl-piperazin-1-yl)-ethanone] were 7.9 nM and 47 nM.
Take `CN1CCN(Cc2cccc(Nc3ncc4ccn(-c5cc(F)c(C(=O)N6CCOCC6)c(F)c5)c4n3)c2)CC1` [Example 245, (2,6-Difluoro-4-{2-[3-(4-methyl-piperazin-1-ylmethyl)-phenylamino]-pyrrolo[2,3-d]pyrimidin-7-yl}-phenyl)-morpholin-4-yl-methanone]: the IC50 on GST-JAK2(808-1132) is less than 3 nM; in assay [1] (setting [2]), 430 nM.

The values above are taken from patent US8420657B2 (Novartis AG, priority 2008, dated 2013).
